Entries after “also recorded” stand apart in the source; their conditions may differ. Like-named read-outs stand apart in the source and are kept apart here.
What was measured:
[1] = system: NFkB and interferon signaling in AML/MDS cells; experiment: NFkB and interferon signaling in AML/MDS cells; assay type: cell-based; details: for NFkB signaling: AML cells
[2] = system: TLR mediated NFkB activity; experiment: TLR mediated NFkB activity; assay type: cell-based; details: for TLR mediated NFkB signaling: AML cells
AML/MDS cells [3] = experiment: Proliferation of AML/MDS cells; assay type: cell-based
AML/MDS cells [4] = experiment: Clonogenic potential of AML/MDS cells; assay type: cell-based
AML/MDS cells [5] = experiment: Cell cycle of AML/MDS cells; assay type: cell-based
AML/MDS cells [6] = experiment: Cell death of AML/MDS cells; assay type: cell-based
AML/MDS cells [7] = experiment: DNA damage in AML/MDS cells; assay type: cell-based
normal HSPC = experiment: Clonogenic capacity of normal HSPC; assay type: cell-based
MDS/AML cells [8] = experiment: Cellular metabolic activity of MDS/AML cells; assay type: cell-based
TRAF6 = TRAF6 protein expression; assay type: cell-based; details: rescued by inhibition of the proteasome
MDSL cells [9] = experiment: RNA sequencing / expression in MDSL cells; assay type: cell-based
Text: (§1) To identify the molecular basis of UBE2N inhibition, Applicant performed a global ubiquitin screen for changes in ubiquitinated substrates and gene expression profiling by RNA sequencing. For the ubiquitin screen, K63 ubiquinated proteins were immunopreciptated from MDSL cells upon pharmacologic inhibition of UBE2N, followed by mass spectrometry analysis.

MDSL cells [10] = experiment: Global ubiquitin screen in MDSL cells; assay type: cell-based
Text: as §1

UBE2N [11] = target: T1, UBE2N (Homo sapiens, UniProt P61088); experiment: Direct binding to UBE2N (Michael-Addition reaction); details: through a Michael-Addition reaction
T1 construct: endogenous in cells
T1 sequence (P61088 1-152): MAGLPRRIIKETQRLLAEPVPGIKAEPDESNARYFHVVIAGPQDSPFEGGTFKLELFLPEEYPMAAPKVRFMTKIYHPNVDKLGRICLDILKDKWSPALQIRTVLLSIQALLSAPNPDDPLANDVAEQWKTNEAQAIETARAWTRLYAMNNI

AML cells = experiment: Viability of AML cells; assay type: cell-based
MOLM-13 and THP-1 cells = experiment: DNA damage in MOLM-13 and THP-1 cells; assay type: cell-based
UBE2N [12] = target: T1, UBE2N; experiment: UBE2N ubiquitination at Lysine (K)-92
UBE2N active site mutant = experiment: Inhibition of NFkB with UBE2N active site mutant; assay type: cell-based
DDB1 = DDB1 ubiquitination following UBE2N inhibition; assay type: cell-based; details: following inhibition of UBE2N
Text: as §1
(§2) One substrate identified in NSC697923-treated MDSL cells by the ubiquitin screen is DDB1, a component of the CUL4-CRBN E3 ligase complex targeted by Lenalidomide (LEN). […] LEN has shown encouraging results in del(5q) MDS patients (“deletion 5q (del 5q) MDS” in which part of chromosome 5 is missing), but its effects are limited in other cytogenetic subtypes of MDS or AML. Therefore, the identification of molecular targets that can enhance or extend the use of LEN in a broader spectrum of patients is desired Applicant explored the possibility of a cooperative effect of LEN and NSC697923 on MDS/AML cells. […] As such, UBE2N is a promising target for extending the use of LEN to other subtypes of MDS/AML.

MDS/AML cells [13] = experiment: Targeting MDS/AML cells in vivo
primary MDS stem cells = experiment: Clonogenic potential of primary MDS stem cells; assay type: cell-based
[14] = system: MDS/AML cell lines and patient samples; experiment: Combination with lenalidomide on MDS/AML cell lines and patient samples in vitro; assay type: cell-based; details: MDS/AML cells
Text: as §2

normal CD34+ cells = experiment: Function of normal CD34+ cells in the presence of lenalidomide; assay type: cell-based

Structure (SMILES) | NFkB signaling [1] | TLR mediated NFkB signaling [2] | proliferation (AML/MDS cells [3]; AML cells) | clonogenic potential (AML/MDS cells [4]; AML cells) | direct binding to UBE2N (UBE2N [11]) | viability (AML cells) | DNA damage (MOLM-13 and THP-1 cells) | UBE2N ubiquination at Lysine (K)-92 (UBE2N [12]) | sensitivity of UBE2N active site mutant to inhibition of NFkB (UBE2N active site mutant) | DDB1 ubiquination (DDB1) | other results
Cc1ccc(S(=O)(=O)c2ccc([N+](=O)[O-])o2)cc1 [NSC697923] |  |  |  |  |  |  |  |  |  |  | NFkB and interferon signaling ([1]; AML/MDS cells, listed as NSC23): inhibits NKkB and interferon signaling; also recorded: inhibits NFkB and interferon signaling; TLR mediated NFkB activity [2]: inhibits TLR mediated NFkB activity; proliferation (AML/MDS cells [3]; AML/MDS cells): reduces proliferation; clonogenic potential (AML/MDS cells [4]; AML/MDS cells): reduces proliferation and clonogenic potential; clonogenic capacity (AML/MDS cells [4]; MDSL/AML cell lines and primary cells): reduced the clonogenic capacity; cell cycle arrest (AML/MDS cells [5]): induced a G2/M cell cycle arrest; cell cycle arrest (AML/MDS cells [5]; listed as NSC23): induces cell cycle arrest in mitosis; cell death (AML/MDS cells [6]): increased cell death; cell death (AML/MDS cells [6]; listed as NSC23): cell death; DNA damage (AML/MDS cells [7]): induces DNA damage; effect on normal HSPC (clonogenic capacity) (normal HSPC): not significantly affecting normal HSPC; cellular metabolic activity (MDS/AML cells [8]): reduced the cellular metabolic activity; TRAF6 protein expression (TRAF6): dramatic loss of TRAF6 protein expression; expression of APC/CDC20 substrates (i.e., cyclin B1) (MDSL cells [9]): increased expression of APC/CDC20 substrates; gene expression changes by RNA sequencing (MDSL cells [9]; MDSL cells): expression changes in genes involved in mRNA processing, cell cycle, and glycolysis; protein ubiquination (MDSL cells [10]): Differential protein ubiquination
Cc1ccc(S(=O)(=O)/C=C/C#N)cc1 [UC64] | inhibits NFkB signaling | inhibits TLR mediated NFkB signaling | reduces their proliferation | reduces their clonogenic potential | directly bind UBE2N | reduces their viability | does not cause DNA damage | reduces UBE2N ubiquination at Lysine (K)-92 | less sensitive | differentially ubiquinated | 
Cc1ccc(S(=O)(=O)c2ccc([N+](=O)[O-])o2)cc1 [UC65] | inhibits NFkB signaling | inhibits TLR mediated NFkB signaling | reduces their proliferation | reduces their clonogenic potential | directly bind UBE2N | reduces their viability | does not cause DNA damage | reduces UBE2N ubiquination at Lysine (K)-92 | less sensitive | differentially ubiquinated | effectiveness against MDS/AML cells in vivo (MDS/AML cells [13]): effective against targeting MDS/AML cells in vivo; clonogenic potential (primary MDS stem cells): reduces their clonogenic potential
Nc1cccc2c1CN(C1CCC(=O)NC1=O)C2=O (stereo not shown) [lenalidomide] |  |  |  |  |  |  |  |  |  |  | cytotoxic effects of lenalidomide with UBE2N inhibition [14]: enhances the cytotoxic effects; function of normal CD34+ cells with UBE2N inhibition in the presence of lenalidomide (normal CD34+ cells): does not affect the function of normal CD34+ cells

Source: US11547696B2, “Methods and compositions for treatment of myelodysplastic syndromes and/or acute myeloid leukemias” (Children's Hospital Medical Center, priority 2016, dated 2023)
